Reference: US9709886B2, “Sulfonic acid derivative compounds as photoacid generators in resist applications” (Heraeus Precious Metals North America Daychem LLC, priority 2015, dated 2017)

Experiments:
Format in all cases: physicochemical
[1] = Solubility of PAG in organic solvents at 20° C.; conditions: for Solubility (w/w%) PGMEA: Propylene glycol monomethyl ether acetate; for Solubility (w/w%) GBL: γ-Butyrolactone; for solubility in the tested solvents: PGMEA, GBL; for Solubility (w/w%) Cyclohexanone / solubility in the tested solvents: cyclohexanone
Source text: Solubility is an important factor in the evaluation of a PAG. High solubility not only makes a PAG purified readily but also enables a PAG to be used for a wide range of concentrations in photoresists and in varied solvent systems. To test the solubility of a PAG, a solvent is slowly added until the PAG is completely dissolved and no turbidity is observed in the clear solution. Table 8 lists the solubility (w/w %) of some representative N-hydroxynaphthalimide sulfonate derivatives versus NIT in various organic solvents at 20° C.

[2] = Photolysis of PAGs in acetonitrile, irradiation at 365 nm (photoreactivity); conditions: for Solubility × Photoreactivity: solubility in PGMEA times relative photoreactivity at 365 nm
Source text: A photoresist composition typically comprises PAG, polymers, additives and solvents. The performance of a photoresist composition is mainly dependent on the properties of the PAG and polymer components. To formulate a high-performance photoresist composition, more photosensitive PAGs are typically selected. The photosensitivity of a PAG is typically directly related to the strength of the generated acid and the photoreactivity of the PAG. For a series of PAGs producing the same latent acid, their photosensitivity is related only to their photoreactivity. Thus evaluating the photosensitivity of a PAG can be achieved by studying its photoreactivity. The higher photoreactivity, the higher photosensitivity. The photoreactivity can be investigated by photolysis of a PAG in its dilute solution under low exposure intensity (to avoid side reactions which don't generate the desired acid). The change in the concentration of a PAG upon irradiation can be determined by measuring the absorbance of the PAG at the maximum absorption wavelength.
(§1) Photolysis of PAGs was carried out in acetonitrile in air at room temperature. The sodium salt of tetrabromophenol blue (TBPBNa), an acid indicator dye, which has a maximum absorption at 618 nm, was purchased from Aldrich (indicator grade) and used as received. Irradiation of the solution of the PAGs (3×10^−5 M) was performed using a Cole-Parmer UV 15 W bench lamp (EW-97605-50) at 365 nm. Light intensity was measured using an UV Power Puck II radiometer from EIT Inc. UV-Vis spectra were run on a Thermo Scientific Evolution 201 UV-visible spectrophotometer.
Photolysis of NIT, comparative compound A and B, T1, T2, T3, and T5 was examined in acetonitrile. […] The absorption band at 362 nm (λmax) gradually decreases upon irradiation, indicating the progress of photoreaction with the increase of exposure dose of energy. Assuming the photoreaction is first-order, a plot of the natural log of changes in absorbance with exposure dose of energy gives the photoreaction constant of T3 (i.e., the slope of the linear trendline) (FIG. 2). The photoreaction constants of other compounds were similarly determined under the same irradiation condition. Comparing the constants of A, B, T1, T2, T3, and T5 with that of NIT normalized to one gives the relative photoreactivity (Table 9). […] The formation of acid upon irradiation was confirmed by observing the spectral changes of the acid indicator, TBPBNa at 618 nm.

[3] = Solubility of PAG in organic solvents at 20° C.; conditions: Table 9; Propylene glycol monomethyl ether acetate
UV-Vis spectra in ACN = conditions: FIG. 4, in ACN (0.001% w/v)
Experimental: FIG. 4 is a UV-Vis spectra of compounds NIT, T1, T2 and T5 in ACN (0.001% w/v).
as §1

For `O=C1c2cccc3c(C#Cc4ccccc4)ccc(c23)C(=O)N1OS(=O)(=O)C(F)(F)F` [A, reference compound], the “Solubility (w/w%) PGMEA” value [1] was 1.0% w/w%, the “Solubility (w/w%) Cyclohexanone” value [1] was 3.5% w/w% and the “Solubility (w/w%) GBL” value [1] was 0.9% w/w%. The “Solubility × Photoreactivity” value [2] was 2.5% and the “Solubility (w/w%) in PGMEA” value [3] was 1.0% w/w%.
In the case of `CCCCC#Cc1ccc2c3c(cccc13)C(=O)N(OS(=O)(=O)C(F)(F)F)C2=O` [B, reference compound], the “Solubility (w/w%) PGMEA” value [1] was 6.1% w/w%, the “Solubility (w/w%) Cyclohexanone” value [1] was 11.5% w/w% and the “Solubility (w/w%) GBL” value [1] was 2.3% w/w%. The “Solubility × Photoreactivity” value [2] was 48.8% and the “Solubility (w/w%) in PGMEA” value [3] was 6.1% w/w%.
For `CCCCC#Cc1ccc2c3c(cccc13)C(=O)N(OS(=O)(=O)C(F)(F)C(F)(F)C(F)(F)C(F)(F)F)C2=O` [Compound T1], the “Solubility (w/w%) PGMEA” value [1] was 8.3% w/w%, the “Solubility (w/w%) Cyclohexanone” value [1] was 19.7% w/w% and the “Solubility (w/w%) GBL” value [1] was 1.5% w/w%. For the same molecule, the “Solubility × Photoreactivity” value [2] was 77.2%, the “absorbance at i-line of a mercury lamp versus NIT” value (UV-Vis spectra in ACN) was “much larger than that of NIT” and the absorption maximum (UV-Vis spectra in ACN) was 362 nm. The “Solubility (w/w%) in PGMEA” value [3] was 8.3% w/w%.
With `CCCCCCC#Cc1ccc2c3c(cccc13)C(=O)N(OS(=O)(=O)C(F)(F)F)C2=O` [Compound T2] the “solubility in the tested solvents” value [1] was “extremely high solubility”, the “Solubility (w/w%) PGMEA” value [1] was 45.8% w/w% and the “Solubility (w/w%) Cyclohexanone” value [1] was 52.4% w/w%. For the same molecule, the “Solubility (w/w%) GBL” value [1] was 23.1% w/w%, the “Solubility × Photoreactivity” value [2] was 394% and the “absorbance at i-line of a mercury lamp versus NIT” value (UV-Vis spectra in ACN) was “much larger than that of NIT”. The absorption maximum (UV-Vis spectra in ACN) was 362 nm and the “Solubility (w/w%) in PGMEA” value [3] was 45.8% w/w%.
With `CCCCCCC#Cc1ccc2c3c(cccc13)C(=O)N(OS(=O)(=O)C(F)(F)C(F)(F)C(F)(F)C(F)(F)F)C2=O` [Compound T3] the “Solubility (w/w%) PGMEA” value [1] was 20.6% w/w%, the “Solubility (w/w%) Cyclohexanone” value [1] was 42.0% w/w% and the “Solubility (w/w%) GBL” value [1] was 2.2% w/w%. For the same molecule, the “absorption band (λmax)” value ([2]; FIG. 1, acetonitrile, before irradiation at 365 nm) was 362 nm, the “Solubility × Photoreactivity” value [2] was 198% and the “Solubility (w/w%) in PGMEA” value [3] was 20.6% w/w%.
For `CCCC(=O)OCC#Cc1ccc2c3c(cccc13)C(=O)N(OS(=O)(=O)C(F)(F)F)C2=O` [Compound T5], the “solubility in the tested solvents” value [1] was “extremely high solubility”, the “Solubility (w/w%) PGMEA” value [1] was 50.1% w/w% and the “Solubility (w/w%) Cyclohexanone” value [1] was 55.4% w/w%. For the same molecule, the “Solubility (w/w%) GBL” value [1] was 32.4% w/w%, the “Solubility × Photoreactivity” value [2] was 200% and the “absorbance at i-line of a mercury lamp versus NIT” value (UV-Vis spectra in ACN) was “much larger than that of NIT”. The absorption maximum (UV-Vis spectra in ACN) was 353 nm and the “Solubility (w/w%) in PGMEA” value [3] was 50.1% w/w%.
For `O=C1c2cccc3cccc(c23)C(=O)N1OS(=O)(=O)C(F)(F)F` [NIT, N-Hydroxynaphthalimide triflate, reference compound], the “Solubility (w/w%) PGMEA” value [1] was 1.7% w/w%, the “Solubility (w/w%) Cyclohexanone” value [1] was 5.9% w/w% and the “Solubility (w/w%) GBL” value [1] was 2.2% w/w%. The “Solubility × Photoreactivity” value [2] was 1.7% and the “Solubility (w/w%) in PGMEA” value [3] was 1.7% w/w%.
